Data reported in US11751567B2, “Steroidal piperidone derivative, synthesis method, and use thereof” (NORTHWEST A&F UNIVERSITY, priority 2021, dated 2023).
In brackets after ≈: the same amount, converted by molar mass. Read-outs that look alike come from different tables or passages of the source.

Key:
Type in all cases: in vivo
rice planthoppers = test: foliar spray test against rice planthoppers; settings: 72 h, read-out: Corrected mortality (%) rice planthoppers
Procedure: (§1) The toxic activities of the steroidal piperidone derivatives listed in Table 4 against B. tabaci were tested by a foliar spray method. Specific process: A specified amount of a compound to be tested was accurately weighed and dissolved in acetone, and solutions with concentrations of 50 μg/mL and 75 μg/mL were each prepared with a 0.1% of Tween 80 aqueous solution and stored for later use. The pesticide solution was sprayed on the back side of a cucumber leaf, the cucumber leaf was naturally dried, and B. tabaci to be tested were placed on the cucumber leaf. Thiamethoxam was used as a positive control, and acetone was used as a negative control. Several deaths were observed after 7 d of treatment, and the corrected mortality was calculated.
The toxic activities of the steroidal piperidone derivatives listed in Table 5 against rice planthoppers were tested by a foliar spray method. Imidacloprid was used as a positive control, and acetone was used as a negative control. Several deaths were observed after 3 d of treatment, and the corrected mortality was calculated.

Myzus persicae = test: slide-dip mortality test on aphids (Myzus persicae); settings: 24 h, read-out: Corrected mortality (%) Myzus persicae
Procedure: (§2) Inhibitory activities of the steroidal piperidone derivatives listed in Tables 1 and 2 against Myzus persicae, Aphis citricola, Brevicoryne brassicae, and wheat aphids were determined through slide-dip method. Specific process: A specified amount of a compound to be tested was accurately weighed and dissolved with acetone as a solvent, and solutions with concentrations of 50 μg/mL and 75 μg/mL were each prepared with a 0.1% Tween-80 aqueous solution, allowed to stand at room temperature for 0.5 h until the sample was completely dissolved, and stored for later use. Then, adult aphids were fixed with double-sided tape on slides with a small brush. One end of the slide with the aphids was immersed in the test solutions for 5 seconds. The excess liquid was absorbed with absorbent paper, and the mortality rates were calculated 24 h after treatment. Acetamiprid was adopted as a positive control, and a 0.1% Tween-80 aqueous solution was adopted as a negative control. and the results are shown in Table 1.

Aphis citricola = test: slide-dip mortality and LC50 test on aphids (Aphis citricola); settings: for mortality at 50 µg/mL / mortality at 75 µg/mL: 24 h, read-out: Corrected mortality (%) Aphis citricola; for LC50: read-out: LC50 of inhibitory activity against Aphis citricola
Procedure: as §2

Brevicoryne brassicae = test: slide-dip mortality test on aphids (Brevicoryne brassicae); settings: 24 h, read-out: Corrected mortality (%) Brevicoryne brassicae
Procedure: as §2

wheat aphids = test: slide-dip mortality test on aphids (wheat aphids); settings: 24 h, read-out: Corrected mortality (%) Wheat aphid
Procedure: as §2

Tetranychus truncatus = test: slide dipping mortality test on mites; settings: read-out: Corrected mortality (%) Tetranychus truncatus
Procedure: as §2
The inhibitory activities of the steroidal piperidone derivatives listed in Table 3 on Tetranychus truncatus were tested through slide dipping.

Bemisia tabaci = test: foliar spray test on cucumber leaf against B. tabaci; settings: 168 h, read-out: Corrected mortality (%) B. tabaci
Procedure: as §1

[1] = 50 μg/mL, slide dipping, process as for aphids
[2] = 75 μg/mL, slide dipping, process as for aphids

Compound | mortality at 50 µg/mL (rice planthoppers) [%] | mortality at 75 µg/mL (rice planthoppers) [%] | mortality at 50 µg/mL (Myzus persicae) [%] | mortality at 75 µg/mL (Myzus persicae) [%] | mortality at 50 µg/mL (Aphis citricola) [%] | mortality at 75 µg/mL (Aphis citricola) [%] | mortality at 50 µg/mL (Brevicoryne brassicae) [%] | mortality at 75 µg/mL (Brevicoryne brassicae) [%] | mortality at 50 µg/mL (wheat aphids) [%] | mortality at 75 µg/mL (wheat aphids) [%] | mortality at 50 µg/mL (Tetranychus truncatus; [1]) [%] | mortality at 75 µg/mL (Tetranychus truncatus; [2]) [%] | mortality at 50 µg/mL (Bemisia tabaci) [%] | mortality at 75 µg/mL (Bemisia tabaci) [%] | LC50 (Aphis citricola) [mg/L] | mortality at 50 µg/mL (Tetranychus truncatus) [%] | mortality at 75 µg/mL (Tetranychus truncatus) [%]
Cc1ccccc1C(=O)N1C(=O)CC[C@H]2[C@@H]3CCC4C[C@@H](O)CC[C@]4(C)[C@H]3CC[C@@]21C (stereo partly shown) [Compound (1)-7] | 36.2 | 45.8 | – | – | – | – | – | – | – | – | – | – | – | – | – | – | –
Cc1cccc(C(=O)N2C(=O)CC[C@H]3[C@@H]4CC=C5C[C@@H](O)CC[C@]5(C)[C@H]4CC[C@@]32C)c1 [Compound (2)-8] | 41.9 | 52.4 | 43.2 | 69.7 | 48.3 | 70.5 | 51.7 | 70.1 | 54.9 | 73.3 | 30.3 | 54.4 | 31.8 | 56.3 | – | – | –
C[C@]12CC[C@H](O)CC1CC[C@@H]1[C@@H]2CC[C@@]2(C)[C@H]1CCC(=O)N2C(=O)c1ccc(Cl)cc1 (stereo partly shown) [Compound (1)-4] | 72 | 80.4 | 84.1 | 100 | 89.9 | 100 | 86.5 | 100 | 91 | 100 | 64.2 | 88.6 | 72.5 | 87.4 | 11.9 (≈ 26.8 µM) | – | –
C/C(=N\C#N)N(C)Cc1ccc(Cl)nc1 [Acetamiprid, reference compound] | – | – | 94.3 | 100 | 93.3 | 100 | 94.4 | 100 | 95.5 | 100 | – | – | – | – | 9.95 (≈ 44.7 µM) | – | –
CN1COCN(Cc2cnc(Cl)s2)/C1=N\[N+](=O)[O-] [Thiamethoxam, reference compound] | – | – | – | – | – | – | – | – | – | – | – | – | 59.5 | 76.2 | – | – | –
O=[N+]([O-])NC1=NCCN1Cc1ccc(Cl)nc1 [Imidacloprid, reference compound] | 61.2 | 82.3 | – | – | – | – | – | – | – | – | – | – | – | – | – | – | –
C[C@]12CC[C@H](O)CC1CC[C@@H]1[C@@H]2CC[C@@]2(C)[C@H]1CCC(=O)N2C(=O)c1ccc(F)cc1 (stereo partly shown) [Compound (1)-3] | 63.3 | 71.2 | 69.3 | 89.9 | 66.3 | 85.2 | 64 | 82.8 | 70.5 | 90 | 54.3 | 70.3 | 67.7 | 74.7 | 24.6 (≈ 57.5 µM) | – | –
C[C@]12CC[C@H](O)CC1CC[C@@H]1[C@@H]2CC[C@@]2(C)[C@H]1CCC(=O)N2C(=O)c1cccc(Br)c1 (stereo partly shown) [Compound (1)-6] | 45.2 | 59.2 | 60.2 | 77.5 | 44.9 | 78.4 | 51.7 | 73.6 | 59.9 | 80 | 24.9 | 55.3 | 56.1 | 67.5 | – | – | –
C[C@]12CC[C@H](O)CC1CC[C@@H]1[C@@H]2CC[C@@]2(C)[C@H]1CCC(=O)N2C(=O)c1ccccc1F (stereo partly shown) [Compound (1)-1] | 42.3 | 56.9 | 53.4 | 75.3 | 56.2 | 78.4 | 42.7 | 65.5 | 50 | 70.3 | – | – | – | – | – | – | –
Cc1ccc(C(=O)N2C(=O)CC[C@H]3[C@@H]4CC=C5C[C@@H](O)CC[C@]5(C)[C@H]4CC[C@@]32C)cc1 [Compound (2)-9] | 59.6 | 66.2 | 80.7 | 100 | 88.8 | 100 | 78.7 | 100 | 85.5 | 100 | 55.2 | 77.5 | 63.4 | 75.9 | 14.2 (≈ 33.7 µM) | – | –
C[C@]12CC[C@H](O)CC1=CC[C@@H]1[C@@H]2CC[C@@]2(C)[C@H]1CCC(=O)N2C(=O)c1ccc([N+](=O)[O-])cc1 [Compound (2)-13] | – | – | – | – | – | – | – | – | – | – | 33.2 | 56.8 | – | – | – | – | –
Cc1cccc(C(=O)N2C(=O)CC[C@H]3[C@@H]4CCC5C[C@@H](O)CC[C@]5(C)[C@H]4CC[C@@]32C)c1 (stereo partly shown) [Compound (1)-8] | 38.4 | 53.6 | – | – | – | – | – | – | – | – | – | – | – | – | – | – | –
Cc1ccccc1C(=O)N1C(=O)CC[C@H]2[C@@H]3CC=C4C[C@@H](O)CC[C@]4(C)[C@H]3CC[C@@]21C [Compound (2)-7] | 64.2 | 79.2 | 93.2 | 100 | 92.1 | 100 | 94.4 | 100 | 96 | 100 | 66.8 | 88.5 | 76.3 | 88.5 | 10.3 (≈ 24.4 µM) | – | –
C[C@]12CC[C@H](O)CC1CC[C@@H]1[C@@H]2CC[C@@]2(C)[C@H]1CCC(=O)N2C(=O)c1cccc(F)c1 (stereo partly shown) [Compound (1)-2] | 52.1 | 60.3 | 26.1 | 55.1 | 39.3 | 61.4 | 30.3 | 54 | 22.1 | 50.4 | – | – | – | – | – | – | –
C[C@]12CC[C@H](O)CC1=CC[C@@H]1[C@@H]2CC[C@@]2(C)[C@H]1CCC(=O)N2C(=O)c1ccccc1Br [Compound (2)-5] | – | – | – | – | – | – | – | – | – | – | 43.5 | 69.6 | – | – | – | – | –
COc1ccc(C(=O)N2C(=O)CC[C@H]3[C@@H]4CC=C5C[C@@H](O)CC[C@]5(C)[C@H]4CC[C@@]32C)cc1 [Compound (2)-10] | 33.2 | 36 | – | – | – | – | – | – | – | – | – | – | 48.5 | 69.1 | – | – | –
C[C@]12CC[C@H](O)CC1CC[C@@H]1[C@@H]2CC[C@@]2(C)[C@H]1CCC(=O)N2C(=O)c1cccc(C(F)(F)F)c1 (stereo partly shown) [Compound (1)-11] | – | – | 25 | 52.8 | 25.8 | 54.5 | 24.7 | 50.6 | 30.4 | 56.5 | – | – | – | – | – | – | –
CC(C)(C)c1ccc(CSc2cnn(C(C)(C)C)c(=O)c2Cl)cc1 [Pyridaben, reference compound] | – | – | – | – | – | – | – | – | – | – | – | – | – | – | – | 65.3 | 89.3
C[C@]12CC[C@H](O)CC1=CC[C@@H]1[C@@H]2CC[C@@]2(C)[C@H]1CCC(=O)N2C(=O)c1cccc(C(F)(F)F)c1 [Compound (2)-11] | 35.3 | 57.8 | 40.9 | 66.3 | 44.9 | 72.7 | 42.7 | 65.5 | 40 | 59.7 | – | – | 45.4 | 58.3 | – | – | –
C[C@]12CC[C@H](O)CC1CC[C@@H]1[C@@H]2CC[C@@]2(C)[C@H]1CCC(=O)N2C(=O)c1ccc(C(F)(F)F)cc1 (stereo partly shown) [Compound (1)-12] | – | – | 30.7 | 57.3 | 32.6 | 65.9 | 29.2 | 57.5 | 24.8 | 55.7 | – | – | – | – | – | – | –
